The results in this text go back to patent US20210380630A1, “Bio-catalyzed Synthesis of New Aromatase Inhibitors through Structural Modifications of Anticancer Drug Formestane” (priority 2021, published 2021).

The target in series [1] is T1, aromatase (human placental microsomes) (Homo sapiens, UniProt P11511).
T1 construct: protein (2 mg) from human placental microsomes; from tissue; host or cells: human placenta (microsomal fraction)
T1 sequence (P11511 1-503): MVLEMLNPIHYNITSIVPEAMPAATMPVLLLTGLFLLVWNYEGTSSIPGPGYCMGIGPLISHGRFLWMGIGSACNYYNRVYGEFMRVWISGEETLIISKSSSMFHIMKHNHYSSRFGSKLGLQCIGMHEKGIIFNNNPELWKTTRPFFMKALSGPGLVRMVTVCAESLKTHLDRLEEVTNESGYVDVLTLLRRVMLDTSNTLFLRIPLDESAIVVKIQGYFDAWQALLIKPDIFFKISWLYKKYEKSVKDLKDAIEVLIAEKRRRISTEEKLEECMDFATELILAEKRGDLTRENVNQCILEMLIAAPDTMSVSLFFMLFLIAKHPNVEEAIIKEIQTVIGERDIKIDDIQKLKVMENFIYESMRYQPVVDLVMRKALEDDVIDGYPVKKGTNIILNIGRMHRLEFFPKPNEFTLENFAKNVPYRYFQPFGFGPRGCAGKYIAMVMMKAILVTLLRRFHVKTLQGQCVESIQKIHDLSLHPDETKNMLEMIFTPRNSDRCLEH
Nature of the series: human placental aromatase assay. In kind it is biochemical.

For series [2], the system named is human fibroblast (BJ) normal cell line. The series can be described thus: cytotoxicity against BJ normal cell line.

Read-outs that look alike come from different tables or passages of the source.

In series [1], `C[C@]12C=CC(=O)C(O)=C1CC[C@@H]1[C@@H]2[C@H](O)C[C@]2(C)C(=O)CC[C@@H]12` [Compound 5, 4,11α-Dihydroxyandrosta-1,4-diene-3,17-dione] came in with an IC50 of 34300 ± 532 nM. For the same molecule, in series [2], the “cytotoxicity to BJ normal cell line” value is given as “non-cytotoxic”.
Turning to `C[C@]12CCC(=O)C(O)=C1CC[C@@H]1[C@@H]2CC[C@]2(C)C(=O)CC[C@@H]12` [Compound 1, Formestane], the IC50 in series [1] amounted to 335 ± 11 nM.
With `C[C@]12CC[C@H](O)C(=O)C1C[C@H](O)[C@@H]1[C@@H]2CC[C@]2(C)C(=O)CC[C@@H]12` (stereo partly drawn) [Compound 3, 3β,7β-Dihydroxyandrostane-4,17-dione], in series [1] (human placental microsomes, 10 μM testosterone, estradiol by UPLC, read-out: IC50 aromatase inhibition), the IC50 is 1370 ± 29 nM.
Regarding `C[C@]12CC[C@H]3[C@@H]([C@H](O)C[C@@]4(O)[C@H](O)C(=O)CC[C@]34C)[C@@H]1CCC2=O` [Compound 2, 4α,5α,7α-Trihydroxyandrostane-3,17-dione], 5230 ± 94 nM corresponded to half-maximal inhibition in series [1] (IC50).
For the molecule `C[C@]12CC[C@H]3[C@@H]([C@@H](O)C[C@@]4(O)C(=O)[C@@H](O)CC[C@]34C)[C@@H]1CCC2=O` [Compound 4, 3β,5α,7β-Trihydroxyandrostane-4,17-dione], the IC50 in series [1] amounted to 386 ± 72 nM.
